Experimental findings from patent US7714135B2, “Tetrahydropyridothiophenes for the treatment of proliferative diseases such as cancer” (4SC AG, priority 2005, dated 2010) are described below.

Experiment [1] relates to RKO (RKOp27) human colon adenocarcinoma cells. As to the kind of experiment: Alamar Blue cell viability assay, anti-proliferative/cytotoxic activity on proliferating (uninduced) RKOp27 cells. Format: cell-based. To be noted: RKOp27 subclone without inducer, 72 hours incubation, read-out: IC50 RKO p27 uninduced (proliferating). The method, then: The anti-proliferative/cytotoxic activity of the compounds described herein, can be tested on subclones of RKO (RKOp27) human colon adenocarcinoma cells (Schmidt et al., Oncogene 19, 2423-2429; 2000) using the Alamar Blue cell viability assay (described in O'Brien et al. Eur J Biochem 267, 5421-5426, 2000). The compounds are dissolved as 20 mM solutions in dimethylsulfoxide (DMSO) and subsequently diluted in semi-logarithmic steps. DMSO dilutions are further diluted 1:100 into Dulbecco's modified Eagle's medium (DMEM) containing 10% fetal calf serum to a final concentration twice as much as the final concentration in the test. RKO subclones are seeded into 96 well flat bottom plates at a density of 4000 cells per well in a volume of 50 μl per well. 24 hours after seeding the 50 μl each of the compound dilutions in DMEM medium are added into each well of the 96 Well plate. Each compound dilution is tested as quadruplicates. Wells containing untreated control cells are filled with 50 μl DMEM medium containing 1% DMSO. The cells are then incubated with the substances for 72 hours at 37° C. in a humidified atmosphere containing 5% carbon dioxide. To determine the viability of the cells, 10 μl of an Alamar Blue solution (Biosource) are added and the fluorescence is measured at an extinction of 544 nm and an emission of 590 nm. For the calculation of the cell viability the emission value from untreated cells is set as 100% viability and the emission rates of treated cells are set in relation to the values of untreated cells. Viabilities are expressed as % values.
The corresponding IC50 values of the compounds for anti-proliferative/cytotoxic activity are determined from the concentration-effect curves.
Representative IC50 values for anti-proliferation/cytotoxicity determined in the mentioned assay follow from the following table A, in which the numbers of the compound correspond to the numbers of the examples.

Experiment [2] has as its system RKO colon adenocarcinoma cells (RKOp27) arrested by the expression of ectopic p27Kip1. In words: Alamar Blue cell viability assay on RKOp27 cells arrested by Ponasterone A-induced p27Kip1 expression (cell cycle specific mode of action). To be noted: Homo sapiens, RKOp27 subclone induced with 10 μM Ponasterone A, 72 hours incubation, read-out: IC50 RKO p27 induced (arrested). It is filed as cell-based. The method, then:
To determine the cell cycle specific mode of action, subclones of RKO colon adenocarcinoma cells (RKOp27 or RKOp21 as described by Schmidt et al. in Oncogene 19, 2423-2429; 2000) are seeded into 96 well flat bottom plates at a density of 16000 cells per well in a volume of 50 μl per well in DMEM growth medium with 10% FCS containing 10 μM Ponasterone A. 24 hours after seeding the 50 μl each of the compound dilutions in DMEM medium are added into each well of the 96 Well plate. Each compound dilution is tested as quadruplicates. Wells containing untreated control cells are filled with 50 μl DMEM medium containing 1% DMSO. The cells are then incubated with the substances for 72 hours at 37° C. in a humidified atmosphere containing 5% carbon dioxide. To determine the viability of the cells, 10 μl of an Alamar Blue solution (Biosource) are added and the fluorescence was measured at an extinction of 544 nm and an emission of 590 nm. For the calculation of the cell viability the emission value from untreated cells is set as 100% viability and the emission rates of treated cells are set in relation to the values of untreated cells. Viabilities are expressed as % values. Viability is compared of proliferating cells grown in the absence of the inducer Ponasterone A, versus viability of cells arrested by the expression of ectopic p27Kip1 induced by Ponasterone A.
Background: The colour change of resazurin is a common sign of viable cells or microbes.

As usually defined, the IC50 is the concentration needed to halve the response being measured. On to `N#Cc1c(NC(=O)CCc2ccco2)sc2c1CCN(C(=O)OCc1cccnc1)C2` [Example 43, 3-Cyano-2-(3-furan-2-yl-propanoylamino)-4,7-dihydro-5H-thieno[2,3-c]pyridine-6-carboxylic acid pyridin-3-ylmethyl ester], for which the IC50 was ≤ 300 nM in experiment [1] and > 100000 nM in experiment [2].

In the case of `N#Cc1c(NC(=O)CCc2ccco2)sc2c1CCN(C(=O)OCc1ccncc1)C2` [Example 44, 3-Cyano-2-(3-furan-2-yl-propanoylamino)-4,7-dihydro-5H-thieno[2,3-c]pyridine-6-carboxylic acid pyridin-4-ylmethyl ester], the IC50 in experiment [1] is ≤ 300 nM; in experiment [2], > 100000 nM.

Take `N#Cc1c(NC(=O)CCc2ccco2)sc2c1CCN(C(=O)OCCc1ccccn1)C2` [Example 45, 3-Cyano-2-(3-furan-2-yl-propanoylamino)-4,7-dihydro-5H-thieno[2,3-c]pyridine-6-carboxylic acid 2-pyridin-2-yl-ethyl ester]: the values for the IC50 in experiment [1] and in experiment [2] were ≤ 300 nM and > 100000 nM, respectively.

Turning to `N#Cc1c(NC(=O)CCc2cccnc2)sc2c1CCN(C(=O)OCCc1ccccn1)C2` [Example 46, 3-Cyano-2-(3-pyridin-3-yl-propanoylamino)-4,7-dihydro-5H-thieno[2,3-c]pyridine-6-carboxylic acid 2-pyridin-2-yl-ethyl ester], the results for the half-maximal inhibitory concentration (IC50) in experiment [1] and in experiment [2] were 300 to 2000 nM and > 100000 nM, respectively.

Take `CCOC(=O)N1CCc2c(sc(NC(=O)CC(C)(C)c3ccccc3)c2C#N)C1` [Example 47, 3-Cyano-2-(3-methyl-3-phenyl-butanoylamino)-4,7-dihydro-5H-thieno[2,3-c]pyridine-6-carboxylic acid ethyl ester]: the IC50 in experiment [1] is ≤ 300 nM; in experiment [2] it was > 100000 nM.

Consider `CCOC(=O)N1CCc2c(sc(NC(=O)C3CC3c3ccco3)c2C#N)C1` (stereo not shown) [Example 48, 3-Cyano-2-{[1-(2-furan-2-yl-cyclopropyl)-methanoyl]-amino}-4,7-dihydro-5H-thieno[2,3-c]pyridine-6-carboxylic acid ethyl ester], for which the results for the IC50 in experiment [1] and in experiment [2] were ≤ 300 nM and > 100000 nM, respectively.

With `N#Cc1c(NC(=O)CCc2ccccc2)sc2c1CCN(C(=O)OCCN1CCOCC1)C2` [Example 50, 3-Cyano-2-(3-phenyl-propanoylamino)-4,7-dihydro-5H-thieno[2,3-c]pyridine-6-carboxylic acid 2-morpholin-4-yl-ethyl ester], the IC50 in experiment [1] is ≤ 300 nM; in experiment [2], > 100000 nM.

For the compound `N#Cc1c(NC(=O)CCc2ccco2)sc2c1CCN(C(=O)OCCN1CCOCC1)C2` [Example 51, 3-Cyano-2-(3-furan-2-yl-propanoylamino)-4,7-dihydro-5H-thieno[2,3-c]pyridine-6-carboxylic acid 2-morpholin-4-yl-ethyl ester], the IC50 was ≤ 300 nM in experiment [1] and > 100000 nM in experiment [2].

Take `N#Cc1c(NC(=O)CCc2ccccc2)sc2c1CCN(C(=O)OCCn1ccnc1)C2` [Example 54, 3-Cyano-2-(3-phenyl-propanoylamino)-4,7-dihydro-5H-thieno[2,3-c]pyridine-6-carboxylic acid 2-imidazol-1-yl-ethyl ester]: the IC50 is ≤ 300 nM in experiment [1] and > 100000 nM in experiment [2].

`N#Cc1c(NC(=O)CCc2ccco2)sc2c1CCN(C(=O)OCCO)C2` [Example 55, 3-Cyano-2-(3-furan-2-yl-propanoylamino)-4,7-dihydro-5H-thieno[2,3-c]pyridine-6-carboxylic acid 2-hydroxy-ethyl ester]: the half-inhibitory concentration (IC50) was ≤ 300 nM in experiment [1] and > 100000 nM in experiment [2].

With `N#Cc1c(NC(=O)CCc2ccccn2)sc2c1CCN(C(=O)OCCc1cccnc1)C2` [Example 107, 3-Cyano-2-(3-pyridin-2-yl-propanoylamino)-4,7-dihydro-5H-thieno[2,3-c]pyridine-6-carboxylic acid 2-pyridin-3-yl-ethyl ester], the IC50 in experiment [1] was 300 to 2000 nM; in experiment [2] it was > 100000 nM.
